Experiments:
[1] = target: T1, Albumin (Homo sapiens, UniProt P02768); experiment: Binding affinity to human serum albumin […]; assay type: ADME, cell-free
[2] = target: T1, Albumin; experiment: Binding affinity to human serum albumin assessed as quenching constant by Stern-Volmer plot analysis; assay type: ADME, cell-free
[3] = test system: Calf thymus DNA; experiment: Displacement of EtBr from calf thymus DNA incubated for 3 mins by fluorescence based assay; assay type: tissue-based; settings: Bos taurus
[4] = test system: Calf thymus DNA; experiment: Displacement of EtBr from calf thymus DNA assessed per base pair incubated for 3 mins by fluorescence based assay; assay type: tissue-based; settings: Bos taurus
[5] = test system: Calf thymus DNA; experiment: Binding affinity to calf thymus DNA assessed as change in melting temperature at DNA to ligand ratio at 40:1 by spectrophotometric method; assay type: tissue-based; settings: Bos taurus
[6] = test system: Calf thymus DNA; experiment: Displacement of EtBr from calf thymus DNA at 50 uM incubated for 3 mins by fluorescence based assay relative to control; assay type: tissue-based; settings: Bos taurus

T1 sequence (P02768 whole entry): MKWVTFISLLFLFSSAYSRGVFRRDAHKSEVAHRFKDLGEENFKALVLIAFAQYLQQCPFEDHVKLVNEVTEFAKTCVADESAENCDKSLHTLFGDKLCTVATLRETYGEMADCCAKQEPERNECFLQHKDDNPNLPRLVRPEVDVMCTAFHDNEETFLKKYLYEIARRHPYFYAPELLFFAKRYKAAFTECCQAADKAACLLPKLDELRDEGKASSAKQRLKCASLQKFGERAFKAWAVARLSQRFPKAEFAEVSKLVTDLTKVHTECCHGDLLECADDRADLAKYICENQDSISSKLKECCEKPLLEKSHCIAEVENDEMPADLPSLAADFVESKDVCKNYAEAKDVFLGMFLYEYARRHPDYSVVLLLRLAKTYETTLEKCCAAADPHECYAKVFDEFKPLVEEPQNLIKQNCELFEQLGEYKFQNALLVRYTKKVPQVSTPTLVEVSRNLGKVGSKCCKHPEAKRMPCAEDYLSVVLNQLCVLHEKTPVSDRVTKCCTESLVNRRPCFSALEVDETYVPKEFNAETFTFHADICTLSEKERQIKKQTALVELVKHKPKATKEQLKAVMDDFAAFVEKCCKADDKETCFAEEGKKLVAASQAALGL

Kb [1] | KSV [2] | Structure (SMILES) | C50 [3] | Kapp [4] | ΔTm [5] | Activity [6]
7.2 10^4/M | 3 10^4/M | C/C=C(\C)C(=O)O[C@@H](C)C[C@@H]1CCCN1C(=O)CCCCCCCCC | 470 µM |  |  | 
 |  | Cn1cc(NC(=O)c2cc(NC(=O)CNC(=N)N)cn2C)cc1C(=O)NCCC(=N)N | 10 µM | 5.1 10^6/M | 0.7 °C | 
6.4 10^4/M | 7.2 10^5/M | C/C=C(\C)C(=O)O[C@H](C)C[C@H]1CCCN1C(=O)CCCCCCCCC | 480 µM | 1.8 10^5/M |  | 93%
16 10^4/M | 1.3 10^5/M | C/C=C(\C)C(=O)O[C@@H](C)C[C@H]1CCCN1C(=O)CCCCCCCCC | 340 µM |  |  | 
 |  | OC[C@H]1O[C@H](O)[C@H](O)[C@@H](O)[C@@H]1O | 390 µM |  | 10.3 °C | 
5.9 10^4/M | 3 10^4/M | C/C=C(\C)C(=O)O[C@H](C)C[C@@H]1CCCN1C(=O)CCCCCCCCC | 380 µM |  |  | 

From ChEMBL document CHEMBL4699560, “Synthesis and Stereochemical Assignment of Conioidine A: DNA- and HSA-Binding Studies of the Four Diastereomers” (J Nat Prod, 2020)
